Patent US20250186600A1, “EXCIPIENT COMPOUNDS FOR PROTEIN FORMULATIONS” (Comera Life Sciences, Inc., priority 2020, published 2025)
Structures can show the parent of a compound that is named as a salt. Each block holds one compound with its values, some of them ahead of it.

Key:
[1] = Table 13; versus 79.7 cP with no excipient
ustekinumab [2] = experiment: Urea denaturation, Sypro orange fluorescence (Example 44); assay type: physicochemical; settings: excipient 5 mg/mL, ustekinumab 1 mg/mL, 6M urea, 20 mM histidine pH 6.0, Sypro orange fluorescence
ustekinumab [3] = experiment: Thermal stability at 65° C., monomer by SE-HPLC (Example 46); assay type: physicochemical; settings: excipient 5 mg/mL, ustekinumab 1 mg/mL, 20 mM histidine pH 6.0, incubated at 65° C.
From the text: Therapeutic proteins are frequently subjected to fluctuations in temperatures which may lead to changes in tertiary and secondary structural elements. This can lead to aggregation of the protein and decrease the amount of active native protein. […] All excipients used in this Example, listed in Table 47 below, were of the highest purity, and were obtained from Sigma Aldrich (St. Louis, MO) or Cayman Chemical (Ann Arbor, MI).

ustekinumab [4] = experiment: Stabilization at low pH, Sypro orange fluorescence (Example 45); settings: excipient 5 mg/mL, ustekinumab 1 mg/mL, glycine acidification buffer pH 2.6, Sypro orange fluorescence
ustekinumab [5] = experiment: Thermal stability at 65 deg C., increase in percent monomer by SE-HPLC (Example 55); assay type: physicochemical; settings: excipient 5 mg/mL, ustekinumab 1 mg/mL, 20 mM Histidine pH 6.0, 65 deg C., 120 min
From the text: Therapeutic proteins are frequently subjected to fluctuations in temperatures, which may lead to changes in their tertiary and secondary structural elements. This leads to aggregation of the protein and a decrease in the active native species.

ustekinumab-FITC [6] = experiment: Thermal stability of model ADC at 65° C. by SE-HPLC (Example 56); settings: excipient 5 mg/mL, ustekinumab-FITC 1 mg/mL, 20 mM Histidine pH 6.0, 65° C.
omalizumab [7] = experiment: Freeze-thaw stability, light scattering at 350 nm (Example 48); assay type: physicochemical; settings: excipient 5 mg/mL, omalizumab 5 mg/mL, 20 mM histidine pH 6.0, at least 5 freeze (−80° C.)/thaw cycles
omalizumab [8] = experiment: Freeze/thaw stress (6 cycles), monomer by SE-HPLC (Example 57); assay type: physicochemical; settings: excipient 100 mM, omalizumab 2 mg/mL, 20 mM Histidine pH 6.0, freeze (−80° C.)/thaw
Protocol: Therapeutic proteins are frequently kept at low temperatures to improve their kinetic stability and minimize structural perturbations that could lead to the aggregation of the protein and a decrease in the active native species. In certain cases, this might be done by freezing the formulation until use. However, the low temperatures, concentration gradients, and ice formation during repeated freezing and thawing can stress the protein. […] The formulations were then aliquoted into 0.5 mL cryovials and frozen at −80° C. for 120 min. The samples were then thawed using a water bath kept at room temperature.

omalizumab [9] = experiment: Mechanical shear stress (agitation 72 h), absorbance at 350 nm (Example 47); assay type: physicochemical; settings: excipient 0.5 mg/mL, omalizumab 2 mg/mL, 22° C., 72 h agitation at 300 rpm
ustekinumab [10] = experiment: Accelerated aging at 40° C. for 4 weeks, monomer by SE-HPLC (Example 58); assay type: physicochemical; settings: excipient 100 mM, ustekinumab 2 mg/mL, 20 mM Histidine pH 6.0, 40° C. for 4 weeks
Protocol: 1 mL of each sample was aliquoted into 2 mL glass vials (West Pharmaceutical services, PA) and incubated at 40° C. for 4 weeks. The aliquots were withdrawn after 0, 1, 2, 3, and 4 weeks.

nivolumab = experiment: Thermal stability of nivolumab at 40 C for 4 weeks, SE-HPLC (Example 69); settings: Excipient added at 400 mM; nivolumab 10 mg/ml, 5 mM phosphate pH 7.5, 40 C for 4 weeks
pembrolizumab = experiment: Thermal stability of pembrolizumab at 40 C for 4 weeks, SE-HPLC (Example 70); settings: Excipient added at 400 mM; pembrolizumab 10 mg/ml, 5 mM phosphate pH 7.5, 40 C for 4 weeks
infliximab [11] = experiment: Thermal stability at 50° C. with caffeine and excipients, SE-HPLC (Example 63); assay type: physicochemical; settings: excipient 0.5 M, caffeine 50 mM, infliximab 10 mg/mL, 5 mM phosphate pH 7.5, 50° C., 180 min
Protocol: Therapeutic proteins stress leads to aggregation of the protein and a decrease in the active native species. […] The aliquots were withdrawn at 0 min, 90 min and 180 min. […] Diode array detector.

[12] = Caffeine solubility testing with co-solutes at ambient temperature (Examples 31-32); settings: with co-solute
Protocol: Prepared solutions were used either neat or diluted with deionized water.
A small magnetic stir bar was added to the vial, and the solution was allowed to mix vigorously on a stir plate for about 10 minutes.

ustekinumab-FITC [13] = experiment: Mechanical shear stability of ustekinumab-FITC, particle radius by DLS (Example 60); settings: ustekinumab-FITC 1 mg/mL, 20 mM histidine pH 6, 300 rpm 72 h 23° C.
[14] = test system: bovine gamma globulin (BGG); experiment: Normalized viscosity of BGG with caffeine and a secondary excipient (Example 40); assay type: physicochemical; settings: Excipient A caffeine 15 mg/mL + Excipient B 14 mg/mL; BGG about 280 mg/mL, 20 mM histidine pH 6, 25° C.
infliximab [15] = experiment: Thermal degradation assay at 55° C., normalized monomer loss rate by HP-SEC (Example 51); assay type: physicochemical; settings: infliximab about 2 mg/mL, 20 mM phosphate pH 7, 55° C.
Protocol: ® infliximab was obtained from the Clinigen Group and reconstituted according to the instructions in the Janssen package insert, resulting in a 10 mg/mL infliximab solution in 5 mM phosphate buffer, pH about 7, with 50 mg/mL sucrose and 0.05 mg/mL polysorbate 80. The reconstituted drug product was then combined 1:1 by volume with 50 mM sodium acetate buffer at pH 5. The resulting solution was then injected onto a small preparative scale cation exchange column (GE Healthcare, Chicago, IL). After the infliximab was loaded onto the column, the column was washed with 10 column volumes of 50 mM sodium acetate buffer, pH 5. The infliximab was then eluted from the column with five column volumes of a 250 mM sodium chloride, 50 mM sodium acetate buffer at pH 5. […] Stock solutions of either 4 or 8 mg/mL infliximab in 20 mM phosphate buffer at pH 7 were then used in subsequent tests.
All excipients used in this Example, listed in Table 52 below, were of the highest purity, and were obtained from Sigma Aldrich (St. Louis, MO) or Cayman Chemical (Ann Arbor, MI). The stock infliximab solutions were mixed with stock excipient solutions containing the excipients listed in Table 52 formulated in 20 mM phosphate buffer, pH 7 to achieve a final infliximab concentration of about 2 mg/mL in each sample. The samples containing the infliximab solutions and the stock excipient solutions were then aliquoted into five 100 μL aliquots in PCR tubes. […] These stressed samples were then analyzed for monomer content by high performance size exclusion chromatography (HP-SEC) using an Agilent 1100 series HPLC equipped with a diode array detector monitoring absorbance at 280 nm. […] For each sample, the monomer peak area was divided by the monomer peak area obtained from an identical but unstressed sample to obtain the percent monomer remaining after exposure to thermal stress. The remaining monomer as a percentage of the unstressed sample was then plotted as a function of incubation time and the absolute value of the slope of a linear fit to the data was recorded as the monomer loss rate.

Compound: O=C(O)CC(O)(CC(=O)O)C(=O)O
Viscosity Reduction (%) [1]: 6.0%

Compound: OC[C@@H](O)C(O)[C@H](O)CO [Arabitol]
% increased stability (ustekinumab [2]): 2.7%
Monomer Fraction % change from control (ustekinumab [3]): 6.0%
% reduction in light scattering at 350 nm vs. control (omalizumab [7]): 17.8%
% change in stability (ustekinumab [4]): 3.4%

Compound: C[C@]1(OC(=O)/C=C/c2ccccc2)C[C@@H](O)[C@]2(O)C=CO[C@@H](O[C@@H]3O[C@H](CO)[C@@H](O)[C@H](O)[C@H]3O)[C@@H]21 [Harpagoside]
% decrease of A350 signal vs. control (omalizumab [9]): 69.0%

Compound: OC[C@H]1O[C@@](CO)(OC[C@@]2(O[C@H]3O[C@H](CO)[C@@H](O)[C@H](O)[C@H]3O)O[C@H](CO)[C@@H](O)[C@@H]2O)[C@@H](O)[C@@H]1O [Kestose]
% increase in monomer content vs. control (omalizumab [8]): 71.18%
% increase in monomer content vs. control (ustekinumab [5]): 5.9%
% increase in monomer content vs. control (ustekinumab [10]): 8.4%
% Monomer remaining (nivolumab): 92.4%
% Monomer remaining (pembrolizumab): 82.6%

Compound: O=C(O)[C@H](O)[C@@H](O)[C@H](O[C@@H]1O[C@H](CO)[C@H](O)[C@H](O)[C@H]1O)[C@H](O)CO [Lactobionic acid]
% change compared to control (infliximab [11]): 20.8%
% Monomer remaining (nivolumab): 89.8%
% Monomer remaining (pembrolizumab): 82.1%

Compound: OC[C@H]1O[C@@](CO)(O[C@H]2O[C@H](CO)[C@@H](O)[C@H](O)[C@H]2O)[C@@H](O[C@H]2O[C@H](CO)[C@@H](O)[C@H](O)[C@H]2O)[C@@H]1O [Melzitose]
% increased stability (ustekinumab [2]): 4.7%
Monomer Fraction % change from control (ustekinumab [3]): 2.0%
% change in stability (ustekinumab [4]): 2.0%

Compound: C[C@H](CC[C@@H](O[C@@H]1O[C@H](CO[C@@H]2O[C@H](CO)[C@@H](O)[C@H](O)[C@H]2O)[C@@H](O)[C@H](O)[C@H]1O[C@@H]1O[C@H](CO)[C@@H](O)[C@H](O)[C@H]1O)C(C)(C)O)[C@H]1CC[C@@]2(C)[C@@H]3CC=C4[C@@H](CC[C@H](O[C@@H]5O[C@H](CO[C@@H]6O[C@H](CO)[C@@H](O)[C@H](O)[C@H]6O)[C@@H](O)[C@H](O)[C@H]5O)C4(C)C)[C@]3(C)[C@H](O)C[C@]12C [Mogroside V]
% decrease of A350 signal vs. control (omalizumab [9]): 68.2%

Compound: O=P([O-])([O-])[O-].[K+].[K+].[K+] [Potassium phosphate, potassium phosphate tribasic]
Viscosity Reduction (%) [1]: 9.3%

Compound: CCN(CC)CCOC(=O)c1ccc(N)cc1 [Procaine HCl, reference compound]
dissolution of caffeine relative to the reported caffeine solubility limit [12]: at least about four times

Compound: O=C1NS(=O)(=O)c2ccccc21.[Na] [Saccharin, Na, saccharin sodium salt]
dissolution of caffeine relative to the reported caffeine solubility limit [12]: at least about four times

Compound: O=C(CO)[C@@H](O)[C@H](O)[C@H](O)[C@H](O)CO [Sedoheptulose]
% increase in monomer content vs. control (omalizumab [8]): 11.35%
% increased stability (ustekinumab [2]): 3.7%
% increase in monomer content vs. control (ustekinumab [5]): 4.1%
% increase in monomer content vs. control (ustekinumab-FITC [6]): 37.68%
Monomer Fraction % change from control (ustekinumab [3]): 3.4%
% increase in monomer content vs. control (ustekinumab [10]): 7.7%
% change in stability (ustekinumab [4]): 2.6%

Compound: O=S(=O)([O-])[O-].[Na+].[Na+] [Sodium sulfate]
Viscosity Reduction (%) [1]: 5.8%
Normalized Viscosity [14]: 0.78

Compound: O=C(CO)[C@@H](O[C@H]1O[C@H](CO)[C@@H](O)[C@H](O)[C@H]1O)[C@H](O)[C@H](O)CO [Turanose]
% increase in monomer content vs. control (omalizumab [8]): 75.99%
% increase in monomer content vs. control (ustekinumab [5]): 5.8%
% increase in monomer content vs. control (ustekinumab-FITC [6]): 48.06%
% increase in monomer content vs. control (ustekinumab [10]): 8.3%

Compound: Cl.NCCc1ccc(O)cc1 [Tyramine HCl]
dissolution of caffeine relative to the reported caffeine solubility limit [12]: at least about four times

Compound: OC[C@H]1O[C@H](O[C@H]2O[C@H](CO)[C@@H](O)[C@H](O)[C@H]2O)[C@H](O)[C@@H](O)[C@@H]1O [trehalose]
% increase in monomer content vs. control (omalizumab [8]): 77.68%
Monomer loss rate (infliximab [15]; excipient 200 mM): 0.0737 % mon/min
Normalized monomer loss rate (infliximab [15]; excipient 200 mM): 0.460
Monomer loss rate (infliximab [15]; excipient 250 mM): 0.0781 % mon/min
Normalized monomer loss rate (infliximab [15]; excipient 250 mM): 0.488
% change in stability (ustekinumab [4]): 2.5%

Results, then the compound that gave them:

% increased stability (ustekinumab [2]): 53.6%
Monomer Fraction % change from control (ustekinumab [3]): 8.4%
% change in stability (ustekinumab [4]): 32.2%
Compound: Nc1ncnc2c1ncn2[C@@H]1O[C@H](CO)[C@@H](O)[C@H]1O [Adenosine]

% increase in monomer content vs. control (ustekinumab [5]): 2.8%
% increase in monomer content vs. control (ustekinumab-FITC [6]): 63.41%
Compound: O=C[C@@H](O)[C@H](O)[C@H](O)[C@H](O)CO [Altrose]

% increase in monomer content vs. control (omalizumab [8]): 10.02%
% increase in monomer content vs. control (ustekinumab [5]): 2.6%
% increase in monomer content vs. control (ustekinumab-FITC [6]): 79.95%
Compound: O=C1O[C@@H]([C@H](O)CO)[C@@H](O)[C@H]1O [Gulonolactone]

% increase in monomer content vs. control (ustekinumab [5]): 3.1%
% increase in monomer content vs. control (ustekinumab-FITC [6]): 23.49%
% increase in monomer content vs. control (ustekinumab [10]): 4.4%
Compound: CC(=O)N[C@@H]1C(O)O[C@H](CO)[C@@H](O)[C@@H]1O (stereo partly drawn) [N-Acetyl Mannosamine]

% change compared to control (infliximab [11]): 13.1%
% Monomer remaining (nivolumab): 85.6%
% Monomer remaining (pembrolizumab): 79.2%
Compound: CO[C@H]1[C@H](O)[C@@H](O)[C@@H](O)[C@H](O)[C@@H]1O [Pinitol]

DLS particle radius (nm) after shear test (ustekinumab-FITC [13]; excipient 8.3 mg/mL): 6.2 nm
Compound: C=C1C[C@@]23CC[C@H]4[C@@](C)(CCC[C@@]4(C)C(=O)O[C@@H]4O[C@H](CO)[C@@H](O)[C@H](O)[C@H]4O)[C@@H]2CC[C@]1(O[C@@H]1O[C@H](CO)[C@@H](O)[C@H](O)[C@H]1O)C3 [Rubusoside]

DLS particle radius (nm) after shear test (ustekinumab-FITC [13]; excipient 5 mg/mL): 6.4 nm
% decrease of A350 signal vs. control (omalizumab [9]): 73.2%
Compound: Madecassoside

DLS particle radius (nm) after shear test (ustekinumab-FITC [13]; excipient 5 mg/mL): 5.8 nm
% decrease of A350 signal vs. control (omalizumab [9]): 73.2%
Compound: Rebaudioside A
